# Active and inactive are the calls of the source. No rule for the calls is given here.
# Tested on: CCRIS mutagenicity, Ames/micronucleus/aberration tests
# Assay: CCRIS mutagenicity studies
# [1] = Test System: AMES SALMONELLA TYPHIMURIUM, Strain/Indicator: TA98, Metabolic Activation: NONE, Method: PREINCUBATION
# [2] = Test System: AMES SALMONELLA TYPHIMURIUM, Strain/Indicator: TA100, Metabolic Activation: NONE, Method: PREINCUBATION
# [3] = Test System: AMES SALMONELLA TYPHIMURIUM, Strain/Indicator: TA100, Metabolic Activation: NONE, Method: STANDARD PLATE
# [4] = Test System: AMES SALMONELLA TYPHIMURIUM, Strain/Indicator: TA102, Metabolic Activation: NONE, Method: PREINCUBATION
# [5] = Test System: AMES SALMONELLA TYPHIMURIUM, Strain/Indicator: TA104, Metabolic Activation: NONE, Method: PREINCUBATION
compound,measurement,setting,value
Cc1ccccn1,mutagenic call,"Test System: AMES SALMONELLA TYPHIMURIUM, Strain/Indicator: TA97, Metabolic Activation: NONE, Method: STANDARD PLATE",inactive; negative
same,mutagenic call,"Test System: AMES SALMONELLA TYPHIMURIUM, Strain/Indicator: TA97, Metabolic Activation: RAT, LIVER, S-9, AROCLOR 1254, Method: STANDARD PLATE",inactive; negative
same,mutagenic call,[1],inactive; negative
same,mutagenic call,"Test System: AMES SALMONELLA TYPHIMURIUM, Strain/Indicator: TA98, Metabolic Activation: NONE, Method: STANDARD PLATE",inactive; negative
same,mutagenic call,"Test System: AMES SALMONELLA TYPHIMURIUM, Strain/Indicator: TA98, Metabolic Activation: RAT LIVER S-9, PHENOBARBITAL AND BETA-NAPHTHOFLAVONE, Method: PREINCUBATION",inactive; negative
same,mutagenic call,"Test System: AMES SALMONELLA TYPHIMURIUM, Strain/Indicator: TA98, Metabolic Activation: RAT, LIVER, S-9, AROCLOR 1254, Method: PREINCUBATION",inactive; negative
same,mutagenic call,"Test System: AMES SALMONELLA TYPHIMURIUM, Strain/Indicator: TA98, Metabolic Activation: RAT, LIVER, S-9, AROCLOR 1254, Method: STANDARD PLATE",inactive; negative
same,mutagenic call,[2],inactive; negative
same,mutagenic call,[3],inactive; negative
same,mutagenic call,"Test System: AMES SALMONELLA TYPHIMURIUM, Strain/Indicator: TA100, Metabolic Activation: RAT LIVER S-9, PHENOBARBITAL AND BETA-NAPHTHOFLAVONE, Method: PREINCUBATION",inactive; negative
same,mutagenic call,"Test System: AMES SALMONELLA TYPHIMURIUM, Strain/Indicator: TA100, Metabolic Activation: RAT, LIVER, S-9, AROCLOR 1254, Method: PREINCUBATION",inactive; negative
same,mutagenic call,"Test System: AMES SALMONELLA TYPHIMURIUM, Strain/Indicator: TA100, Metabolic Activation: RAT, LIVER, S-9, AROCLOR 1254, Method: STANDARD PLATE",inactive; negative
same,mutagenic call,[4],inactive; negative
same,mutagenic call,"Test System: AMES SALMONELLA TYPHIMURIUM, Strain/Indicator: TA102, Metabolic Activation: NONE, Method: STANDARD PLATE",inactive; negative
same,mutagenic call,"Test System: AMES SALMONELLA TYPHIMURIUM, Strain/Indicator: TA102, Metabolic Activation: RAT LIVER S-9, PHENOBARBITAL AND BETA-NAPHTHOFLAVONE, Method: PREINCUBATION",inactive; negative
same,mutagenic call,"Test System: AMES SALMONELLA TYPHIMURIUM, Strain/Indicator: TA102, Metabolic Activation: RAT, LIVER, S-9, AROCLOR 1254, Method: PREINCUBATION",inactive; negative
same,mutagenic call,"Test System: AMES SALMONELLA TYPHIMURIUM, Strain/Indicator: TA102, Metabolic Activation: RAT, LIVER, S-9, AROCLOR 1254, Method: STANDARD PLATE",inactive; negative
same,mutagenic call,[5],inactive; negative
same,mutagenic call,"Test System: AMES SALMONELLA TYPHIMURIUM, Strain/Indicator: TA104, Metabolic Activation: RAT LIVER S-9, PHENOBARBITAL AND BETA-NAPHTHOFLAVONE, Method: PREINCUBATION",inactive; negative
same,mutagenic call,"Test System: AMES SALMONELLA TYPHIMURIUM, Strain/Indicator: TA1535, Metabolic Activation: NONE, Method: PREINCUBATION",inactive; negative
same,mutagenic call,"Test System: AMES SALMONELLA TYPHIMURIUM, Strain/Indicator: TA1535, Metabolic Activation: RAT LIVER S-9, PHENOBARBITAL AND BETA-NAPHTHOFLAVONE, Method: PREINCUBATION",inactive; negative
same,mutagenic call,"Test System: AMES SALMONELLA TYPHIMURIUM, Strain/Indicator: TA1537, Metabolic Activation: NONE, Method: PREINCUBATION",inactive; negative
same,mutagenic call,"Test System: AMES SALMONELLA TYPHIMURIUM, Strain/Indicator: TA1537, Metabolic Activation: RAT LIVER S-9, PHENOBARBITAL AND BETA-NAPHTHOFLAVONE, Method: PREINCUBATION",inactive; negative
same,mutagenic call,"Test System: E.COLI, Strain/Indicator: WP2UVRA/PKM101, Metabolic Activation: NONE, Method: PREINCUBATION",inactive; negative
same,mutagenic call,"Test System: E.COLI, Strain/Indicator: WP2UVRA/PKM101, Metabolic Activation: RAT LIVER S-9, PHENOBARBITAL AND BETA-NAPHTHOFLAVONE, Method: PREINCUBATION",inactive; negative
same,mutagenic call,"Test System: E.COLI, Strain/Indicator: WP2UVRA, Metabolic Activation: NONE, Method: PREINCUBATION",inactive; negative
same,mutagenic call,"Test System: E.COLI, Strain/Indicator: WP2UVRA, Metabolic Activation: RAT LIVER S-9, PHENOBARBITAL AND BETA-NAPHTHOFLAVONE, Method: PREINCUBATION",inactive; negative
Oc1ccc(/C=C/c2cc(O)cc(O)c2)cc1,mutagenic call,"End Point: CHROMOSOMAL ABERRATIONS, Test System: CHINESE HAMSTER LUNG CELLS, Metabolic Activation: NONE",active; positive (structural and ploidy changes)
same,mutagenic call,"Test System: Ames Salmonella typhimurium, Strain/Indicator: TA102, Metabolic Activation: None, Method: Preincubation",inactive; negative
same,mutagenic call,"Test System: Ames Salmonella typhimurium, Strain/Indicator: TA102, Metabolic Activation: Rat, Liver, S-9, Aroclor 1254 in 0.154 M KCl, Method: Preincubation",inactive; negative
C(COCC1CO1)OCC1CO1 (configuration not stated),mutagenic call,[3],active; positive
same,mutagenic call,"Test System: AMES SALMONELLA TYPHIMURIUM, Strain/Indicator: TA1535, Metabolic Activation: NONE, Method: STANDARD PLATE",active; positive
CC1=CC(=O)C=CC1=O,mutagenic call,[1],inactive; negative
same,mutagenic call,"Test System: AMES SALMONELLA TYPHIMURIUM, Strain/Indicator: TA98, Metabolic Activation: RAT, LIVER, S-9, PHENOBARBITAL AND 5,6-BENZOFLAVONE, Method: PREINCUBATION",inactive; negative
same,mutagenic call,[2],inactive; negative
same,mutagenic call,[4],inactive; negative
same,mutagenic call,"Test System: AMES SALMONELLA TYPHIMURIUM, Strain/Indicator: TA102, Metabolic Activation: RAT, LIVER, S-9, PHENOBARBITAL AND 5,6-BENZOFLAVONE, Method: PREINCUBATION",inactive; negative
same,mutagenic call,[5],inactive; negative
same,mutagenic call,"Test System: AMES SALMONELLA TYPHIMURIUM, Strain/Indicator: TA104, Metabolic Activation: RAT, LIVER, S-9, PHENOBARBITAL AND 5,6-BENZOFLAVONE, Method: PREINCUBATION",inactive; negative
same,mutagenic call,"Test System: AMES SALMONELLA TYPHIMURIUM, Strain/Indicator: TA2637, Metabolic Activation: NONE, Method: PREINCUBATION",inactive; negative
same,mutagenic call,"Test System: AMES SALMONELLA TYPHIMURIUM, Strain/Indicator: TA2637, Metabolic Activation: RAT, LIVER, S-9, PHENOBARBITAL AND 5,6-BENZOFLAVONE, Method: PREINCUBATION",active; positive
Cc1ccc(NC2OC[C@@H](O)[C@H](O)[C@H]2O)cc1 (some centres not stated),mutagenic call,"Test System: AMES SALMONELLA TYPHIMURIUM, Strain/Indicator: TA100, Metabolic Activation: NONE, Method: LIQUID INCUBATION",active; positive

# Source: PubChem BioAssay AID1259407 (Chemical Carcinogenesis Research Information System (CCRIS), 2018)
